Laboratory results from patent US20230219986A1, “NOVEL AMINOPYRIMIDINE EGFR INHIBITOR” (QILU PHARMACEUTICAL CO., LTD., priority 2020, published 2023).

Tests used:
wild-type EGFR = biological target: T1, wild-type EGFR (Homo sapiens, UniProt P00533); experiment: Enzymology experiment in vitro (HTRF/FRET kinase activity), wild-type EGFR; format: biochemical; conditions: HTRF KinEASE-TK, read-out: EGFR (WT) IC50
T1 construct: purchased Signalchem
Method in brief: (§1)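 Kinase reaction run 40 min at room temperature with peptide and ATP after a 10 min compound–enzyme preincubation. Phosphorylation read as HTRF signal after 1 h with Eu³⁺ antibody, XL665-streptavidin and EDTA (Cisbio KinEASE-TK).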

[1] = biological target: T2, L858R/T790M/C797S triple mutant EGFR (Homo sapiens, UniProt P00533, C797S/L858R/T790M); experiment: Enzymology experiment in vitro (HTRF/FRET kinase activity), L858R/T790M/C797S triple mutant EGFR; format: biochemical; conditions: HTRF KinEASE-TK, read-out: EGFR (L858R/T790M/C797S) IC50
T2 construct: purchased Signalchem
Method in brief: as §1

[2] = tested on: EGFR wild-type cell line A431; experiment: Cell proliferation inhibition experiment (CellTiter-Glo), A431; format: cell-based; conditions: Homo sapiens, A-431, 72 h, A431 cells, Cell Titer-Glo, read-out: A431 EGFR WT IC50
Method in brief: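 Luminescent CellTiter-Glo readout, 30 min at room temperature, after 72 h compound exposure at 37° C., 5% CO2 with 0.1% DMSO final. EGFR wild-type A431 cells were seeded at 800 per well and grown 24 h before dosing. IC50 derived from the dose-response.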

[3] = biological target: Ba/F3 De119/T790M/C797S EGFR triple mutant cell line (Homo sapiens, UniProt P00533, T790M/C797S, cells depend on it, form not given); experiment: Cell proliferation inhibition experiment (CellTiter-Glo), Ba/F3 De119/T790M/C797S; format: cell-based; conditions: Ba/F3 Del19/T790M/C797S EGFR triple mutant cells, 72 hours, Cell Titer-Glo; read-out: Ba/F3 (Del19/T790M/C797S) IC50
[4] = biological target: Ba/F3 L858R/T790M/C797S EGFR triple mutant cell line (Homo sapiens, UniProt P00533, T790M/C797S/L858R, cells depend on it); experiment: Cell proliferation inhibition experiment (CellTiter-Glo), Ba/F3 L858R/T790M/C797S; format: cell-based; conditions: 72 hours, Cell Titer-Glo, read-out: Ba/F3 (L858R/T790M/C797S) IC50
Chain of Ba/F3 L858R/T790M/C797S EGFR triple mutant cell line (P00533 whole entry T790M/C797S/L858R): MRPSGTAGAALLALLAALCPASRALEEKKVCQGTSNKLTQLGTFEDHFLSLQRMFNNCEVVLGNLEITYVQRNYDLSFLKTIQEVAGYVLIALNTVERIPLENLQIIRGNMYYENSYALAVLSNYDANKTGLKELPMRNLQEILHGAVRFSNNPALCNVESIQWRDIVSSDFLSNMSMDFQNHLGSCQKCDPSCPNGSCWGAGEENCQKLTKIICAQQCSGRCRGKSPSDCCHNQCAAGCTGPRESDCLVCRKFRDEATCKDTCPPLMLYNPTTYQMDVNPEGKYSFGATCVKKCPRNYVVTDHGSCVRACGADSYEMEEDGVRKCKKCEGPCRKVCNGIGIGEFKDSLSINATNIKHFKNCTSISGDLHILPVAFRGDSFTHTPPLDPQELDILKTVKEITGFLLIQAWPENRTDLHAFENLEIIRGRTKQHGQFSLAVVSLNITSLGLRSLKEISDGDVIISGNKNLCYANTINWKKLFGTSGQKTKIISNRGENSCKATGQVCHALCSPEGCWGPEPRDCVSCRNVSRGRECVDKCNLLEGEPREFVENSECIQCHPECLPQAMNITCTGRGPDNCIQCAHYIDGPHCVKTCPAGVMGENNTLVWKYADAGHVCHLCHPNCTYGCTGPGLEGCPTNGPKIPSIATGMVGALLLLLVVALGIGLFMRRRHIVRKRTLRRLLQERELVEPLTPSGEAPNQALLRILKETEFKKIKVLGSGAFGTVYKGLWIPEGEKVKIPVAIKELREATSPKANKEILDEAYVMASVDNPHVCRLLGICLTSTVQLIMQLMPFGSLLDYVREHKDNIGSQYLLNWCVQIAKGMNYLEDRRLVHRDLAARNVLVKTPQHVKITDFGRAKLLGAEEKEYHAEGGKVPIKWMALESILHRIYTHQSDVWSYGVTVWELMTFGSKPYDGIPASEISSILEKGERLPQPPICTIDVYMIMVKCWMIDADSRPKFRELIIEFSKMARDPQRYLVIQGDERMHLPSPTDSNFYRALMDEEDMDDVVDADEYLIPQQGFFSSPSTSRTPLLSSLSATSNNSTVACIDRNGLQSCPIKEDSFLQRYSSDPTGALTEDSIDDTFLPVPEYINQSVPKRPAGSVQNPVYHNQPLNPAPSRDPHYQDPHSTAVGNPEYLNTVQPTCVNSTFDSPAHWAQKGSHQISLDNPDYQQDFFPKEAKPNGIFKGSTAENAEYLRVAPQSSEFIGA

Chain of Ba/F3 De119/T790M/C797S EGFR triple mutant cell line (P00533 with tags, fused parts or gaps DEL746-750/T790M/C797S, form open): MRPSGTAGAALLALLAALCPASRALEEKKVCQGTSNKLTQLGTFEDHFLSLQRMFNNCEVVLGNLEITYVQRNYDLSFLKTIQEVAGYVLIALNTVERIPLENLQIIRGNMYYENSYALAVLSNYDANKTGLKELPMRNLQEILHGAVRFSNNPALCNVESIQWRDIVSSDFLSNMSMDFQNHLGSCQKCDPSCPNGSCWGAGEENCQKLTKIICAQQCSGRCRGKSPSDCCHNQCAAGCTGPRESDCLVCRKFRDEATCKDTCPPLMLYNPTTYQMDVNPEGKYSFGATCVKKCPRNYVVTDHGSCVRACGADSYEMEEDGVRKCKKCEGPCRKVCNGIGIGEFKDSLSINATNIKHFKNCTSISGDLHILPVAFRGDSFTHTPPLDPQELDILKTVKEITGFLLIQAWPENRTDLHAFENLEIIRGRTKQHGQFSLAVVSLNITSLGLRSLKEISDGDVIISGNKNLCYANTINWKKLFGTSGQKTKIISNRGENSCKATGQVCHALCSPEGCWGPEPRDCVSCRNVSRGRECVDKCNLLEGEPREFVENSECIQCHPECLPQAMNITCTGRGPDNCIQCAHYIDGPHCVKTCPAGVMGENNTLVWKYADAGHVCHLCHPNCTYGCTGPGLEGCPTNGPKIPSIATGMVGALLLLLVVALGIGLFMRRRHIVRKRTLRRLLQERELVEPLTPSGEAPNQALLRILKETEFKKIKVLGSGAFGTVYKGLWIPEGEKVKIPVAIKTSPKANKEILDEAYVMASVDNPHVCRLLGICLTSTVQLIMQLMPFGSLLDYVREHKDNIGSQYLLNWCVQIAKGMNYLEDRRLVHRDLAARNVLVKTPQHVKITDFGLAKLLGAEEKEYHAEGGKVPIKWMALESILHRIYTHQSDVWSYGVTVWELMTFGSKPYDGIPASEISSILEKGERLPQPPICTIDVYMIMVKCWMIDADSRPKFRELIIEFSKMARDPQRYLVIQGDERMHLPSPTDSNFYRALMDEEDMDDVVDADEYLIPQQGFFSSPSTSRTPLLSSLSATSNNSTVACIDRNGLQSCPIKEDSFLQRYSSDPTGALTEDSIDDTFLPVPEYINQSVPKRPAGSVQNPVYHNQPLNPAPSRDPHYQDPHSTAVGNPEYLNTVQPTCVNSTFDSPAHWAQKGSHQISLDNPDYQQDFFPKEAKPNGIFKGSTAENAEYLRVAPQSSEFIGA
T2 sequence (P00533 25-1210 T790M/C797S/L858R): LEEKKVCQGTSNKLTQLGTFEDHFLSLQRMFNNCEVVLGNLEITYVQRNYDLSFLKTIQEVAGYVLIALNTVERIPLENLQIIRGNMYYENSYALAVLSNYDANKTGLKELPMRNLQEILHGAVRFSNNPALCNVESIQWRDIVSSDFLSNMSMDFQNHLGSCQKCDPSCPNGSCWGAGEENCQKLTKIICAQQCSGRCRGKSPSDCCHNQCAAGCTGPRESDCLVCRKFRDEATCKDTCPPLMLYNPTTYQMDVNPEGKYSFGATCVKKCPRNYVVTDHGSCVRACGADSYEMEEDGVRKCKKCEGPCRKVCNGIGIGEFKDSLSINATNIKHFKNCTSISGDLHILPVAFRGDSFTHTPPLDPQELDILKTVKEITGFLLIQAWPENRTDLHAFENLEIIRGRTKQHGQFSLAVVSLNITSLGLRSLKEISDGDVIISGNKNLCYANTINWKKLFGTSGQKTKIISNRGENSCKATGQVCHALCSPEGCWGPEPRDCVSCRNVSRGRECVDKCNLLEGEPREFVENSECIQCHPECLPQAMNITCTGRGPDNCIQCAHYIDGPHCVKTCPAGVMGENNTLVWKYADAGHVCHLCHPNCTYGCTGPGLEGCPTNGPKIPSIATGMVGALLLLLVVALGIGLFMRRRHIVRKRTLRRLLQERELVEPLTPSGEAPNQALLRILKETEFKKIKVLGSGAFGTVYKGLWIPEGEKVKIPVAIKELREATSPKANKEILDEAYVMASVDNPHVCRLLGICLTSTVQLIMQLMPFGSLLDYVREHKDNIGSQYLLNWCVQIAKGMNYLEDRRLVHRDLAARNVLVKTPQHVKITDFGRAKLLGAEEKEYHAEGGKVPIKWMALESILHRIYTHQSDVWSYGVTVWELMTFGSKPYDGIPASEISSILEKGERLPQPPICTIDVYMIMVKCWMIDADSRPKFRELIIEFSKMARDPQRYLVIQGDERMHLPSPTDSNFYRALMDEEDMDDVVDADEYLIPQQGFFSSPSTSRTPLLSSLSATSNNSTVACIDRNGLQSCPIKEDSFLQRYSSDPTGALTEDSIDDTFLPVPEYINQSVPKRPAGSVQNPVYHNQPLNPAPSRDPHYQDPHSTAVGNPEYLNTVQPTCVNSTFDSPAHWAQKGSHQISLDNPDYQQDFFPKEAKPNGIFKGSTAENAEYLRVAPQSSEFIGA
T1 sequence (P00533 25-1210): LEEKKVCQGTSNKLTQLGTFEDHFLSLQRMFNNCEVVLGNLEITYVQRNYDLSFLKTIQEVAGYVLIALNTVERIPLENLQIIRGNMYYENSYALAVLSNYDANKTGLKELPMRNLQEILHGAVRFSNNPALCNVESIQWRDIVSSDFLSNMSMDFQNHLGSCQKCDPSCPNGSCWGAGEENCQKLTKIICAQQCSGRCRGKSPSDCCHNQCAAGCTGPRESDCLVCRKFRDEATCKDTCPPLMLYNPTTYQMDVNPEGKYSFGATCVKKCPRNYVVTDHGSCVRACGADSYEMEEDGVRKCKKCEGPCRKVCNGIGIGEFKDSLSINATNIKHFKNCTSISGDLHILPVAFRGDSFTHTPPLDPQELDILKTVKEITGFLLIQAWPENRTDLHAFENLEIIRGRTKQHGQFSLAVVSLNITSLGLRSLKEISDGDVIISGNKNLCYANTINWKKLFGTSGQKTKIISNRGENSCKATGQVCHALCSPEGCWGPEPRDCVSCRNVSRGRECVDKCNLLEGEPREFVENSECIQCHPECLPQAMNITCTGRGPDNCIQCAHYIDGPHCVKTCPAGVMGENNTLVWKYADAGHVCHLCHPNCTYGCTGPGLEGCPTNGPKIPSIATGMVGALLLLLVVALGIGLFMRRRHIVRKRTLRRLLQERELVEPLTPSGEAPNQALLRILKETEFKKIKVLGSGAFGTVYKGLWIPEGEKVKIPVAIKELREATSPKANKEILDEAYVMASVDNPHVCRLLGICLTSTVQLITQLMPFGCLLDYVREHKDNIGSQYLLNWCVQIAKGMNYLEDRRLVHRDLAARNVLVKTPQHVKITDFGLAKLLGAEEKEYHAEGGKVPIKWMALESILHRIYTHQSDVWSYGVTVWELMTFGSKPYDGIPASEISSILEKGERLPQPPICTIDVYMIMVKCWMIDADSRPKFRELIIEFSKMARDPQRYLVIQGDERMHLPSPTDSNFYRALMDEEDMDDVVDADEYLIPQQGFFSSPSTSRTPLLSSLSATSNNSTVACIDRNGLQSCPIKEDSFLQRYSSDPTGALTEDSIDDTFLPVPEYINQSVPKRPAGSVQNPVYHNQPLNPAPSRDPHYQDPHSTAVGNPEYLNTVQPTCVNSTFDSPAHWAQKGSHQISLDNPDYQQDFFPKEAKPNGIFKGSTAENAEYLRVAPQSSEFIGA

| Compound | IC50 (wild-type EGFR) [nM] | IC50 [1] [nM] | IC50 [2] [nM] | GI50 [3] [nM] | GI50 [4] [nM] |
| --- | --- | --- | --- | --- | --- |
| COc1cc(N2CCN3CCCCC3C2)c(-c2cnn(C)c2)cc1Nc1ncc(Br)c(Nc2ccc3nccnc3c2P(C)(C)=O)n1 (stereo not shown) [compound 131] | 2.57 | 0.12 | 67.8 | 0.6 | 7.17 |
| COc1cc(N2CCN(CCC(F)F)CC2)c(-c2cnn(C)c2)cc1Nc1ncc(Br)c(Nc2ccc3nccnc3c2P(C)(C)=O)n1 [compound 222, (6-((5-Bromo-2-((4-(4-(3,3-difluoropropyl)piperazin-1-yl)-2-methoxy-5-(1-methyl-1H-pyrazol-4-yl)phenyl)amino)pyrimidin-4-yl)amino)quinoxalin-5-yl)dimethylphosphine oxide] | 4.22 | 0.3 | 70.4 | 1.22 | 2.02 |
| COc1cc(N2CCC(N3CCC(OC)CC3)CC2)c(-c2cnn(C)c2)cc1Nc1ncc(Br)c(Nc2ccc3nccnc3c2P(C)(C)=O)n1 [compound 179] | 1.48 | 0.4 | 54.3 | 1.37 | 6.84 |
| COc1cc(N2CCOC(C)C2)c(-c2cnn(C)c2)cc1Nc1ncc(Br)c(Nc2ccc3nccnc3c2P(C)(C)=O)n1 (stereo not shown) [compound 134] | 3.57 | 0.21 | 316 | 1.02 | 7.82 |
| COc1cc(N2CCC(C)(OC)CC2)c(-c2cnn(C)c2)cc1Nc1ncc(Br)c(Nc2ccc3nccnc3c2P(C)(C)=O)n1 [compound 188] | 5.62 | 0.43 | 56.6 | 0.61 | 0.87 |
| COc1cc(N2CCC3CCN(CCOC(C)C)C3C2)c(-c2cnn(C)c2)cc1Nc1ncc(Br)c(Nc2ccc3nccnc3c2P(C)(C)=O)n1 (stereo not shown) [compound 206] | 8.46 | 0.62 | 298 | 7.62 | 30.2 |
| COc1cc(N2CCC3(CCN(CCF)CC3)CC2)c(-c2cnn(C)c2)cc1Nc1ncc(Br)c(Nc2ccccc2P(C)(C)=O)n1 [compound 230] | 12 | 0.29 | 126 | 4.47 | 10.1 |
| COCCN1CCN(c2cc(OC)c(Nc3ncc(Br)c(Nc4ccc5nccnc5c4P(C)(C)=O)n3)cc2-c2cnn(C)c2)CC1 [compound 92] | 2.34 | 0.03 | 31.8 | 0.54 | 2.85 |
| COc1cc(N2CCC(N3CC(F)C3)CC2)c(-c2cnn(C)c2)cc1Nc1ncc(Br)c(Nc2ccc3nccnc3c2P(C)(C)=O)n1 [compound 159] | 1.54 | 0.7 | 114 | 0.93 | 4.11 |
| COc1cc(N2CCC(OCCN(C)C)CC2)c(-c2cnn(C)c2)cc1Nc1ncc(Br)c(Nc2ccc3nccnc3c2P(C)(C)=O)n1 [compound 198] | 0.62 | 0.22 | 38 | 4.26 | 9.49 |
| COc1cc(N2CCC(OCC3CC3)CC2)c(-c2cnn(C)c2)cc1Nc1ncc(Br)c(Nc2ccc3ncccc3c2P(C)(C)=O)n1 [compound 225] | 10.8 | 1.96 | 370 | 3.54 | 11.3 |
| COc1cc(N2CCC3(CC2)COC3)c(-c2cnn(C)c2)cc1Nc1ncc(Br)c(Nc2ccc3nccnc3c2P(C)(C)=O)n1 [compound 15] | 12.2 | < 0.05 | 177 | 4.62 | 15.6 |
| Cn1cc(-c2cc(Nc3ncc(Br)c(Nc4ccccc4P(C)(C)=O)n3)c(OCC(F)(F)F)nc2N2CCOCC2)cn1 [compound 123] | 121 | 1.12 | 8840 | 24.3 | 82 |
| COc1cc(NC(C)C(F)(F)F)c(-c2cnn(C)c2)cc1Nc1ncc(Br)c(Nc2ccc3nccnc3c2P(C)(C)=O)n1 (stereo not shown) [compound 154] | 36.9 | 0.86 | 469 | 5.26 | 15.4 |
